Values quoted from earlier work in US5596019A, “N-acyl-cycloalkylamine derivatives as melatonergics” (Bristol-Myers Squibb Company, priority 1995, dated 1997).

Assays:
circadian rhythms = settings: exogenous melatonin, rats

In the case of `COc1ccc2[nH]cc(CCNC(C)=O)c2c1` [melatonin, N-acetyl-5-methoxytryptamine], the oral bioavailability is listed as “often low and variable” and the “synchronization of circadian rhythms” value (circadian rhythms) is listed as “synchronize circadian rhythms in rats”.
